Laboratory results: patent US20250163104A1, “MACROCYCLIC IMMUNOMODULATORS” (priority 2021, published 2025)
Where a SMILES comes first, the peptide text is derived from it. Bridges are numbered along the chain shown (N, C = ends). [ ]: non-standard residue; d: D form. The star is where a group is joined. ξ: configuration not given here. Phe(4-CF3) = N[C@@H](Cc1ccc(C(F)(F)F)cc1)C(=O)O; Phe(4-COOH) = N[C@@H](Cc1ccc(C(=O)O)cc1)C(=O)O; Bip = N[C@@H](Cc1ccc(-c2ccccc2)cc1)C(=O)O; Phe(3-OMe) = COc1cccc(C[C@H](N)C(=O)O)c1; Phe(2-CN) = N#Cc1ccccc1C[C@H](N)C(=O)O; Phe(3-F) = N[C@@H](Cc1cccc(F)c1)C(=O)O; Phe(3-Me) = Cc1cccc(C[C@H](N)C(=O)O)c1; d(aThr) = C[C@@H](O)[C@@H](N)C(=O)O; Val(3-OH) = CC(C)(O)[C@H](N)C(=O)O; 4Pal = N[C@@H](Cc1ccncc1)C(=O)O; Cha = N[C@@H](CC1CCCCC1)C(=O)O; Cit = NC(=O)NCCC[C@H](N)C(=O)O; Ile(3ξ) = CCC(C)[C@H](N)C(=O)O; Thr(3ξ) = CC(O)[C@H](N)C(=O)O; Carboxymethyl = O=C(O)C*; Orn = NCCC[C@H](N)C(=O)O; Pra = C#CC[C@H](N)C(=O)O; Dab = NCC[C@H](N)C(=O)O; Nva = CCC[C@H](N)C(=O)O; Abu = CC[C@H](N)C(=O)O; Dap = NC[C@H](N)C(=O)O; ξA = CC(N)C(=O)O

Molecular target: T1, human PD-1 / PD-L1-Ig binding on Jurkat cell line over-expressing human PD-1 (Jurkat-PD-1) (Homo sapiens, UniProt Q15116)
T1 construct: expressed in transfected cells; host or cells: Jurkat
Test: Jurkat-PD-1 Cell Binding High-Content Screening Assay (CBA)
Format: cell-based
Conditions: Jurkat-PD-1 cells, PE-labeled PD-L1-Ig 20 nM final; read-out: Jurkat HPD1_PDL1 IC50
Procedure, shortened: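 Jurkat cells over-expressing human PD-1, in DMEM/10% FCS, pre-incubated with compound 2 h at 37° C. PE-labeled human PD-L1-Ig (20 nM final) added for 1 h; cells fixed in paraformaldehyde with Hoechst 33342 nuclear stain, washed, and bound fluorescence quantified by high-content imaging.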

T1 sequence (Q15116 25-288): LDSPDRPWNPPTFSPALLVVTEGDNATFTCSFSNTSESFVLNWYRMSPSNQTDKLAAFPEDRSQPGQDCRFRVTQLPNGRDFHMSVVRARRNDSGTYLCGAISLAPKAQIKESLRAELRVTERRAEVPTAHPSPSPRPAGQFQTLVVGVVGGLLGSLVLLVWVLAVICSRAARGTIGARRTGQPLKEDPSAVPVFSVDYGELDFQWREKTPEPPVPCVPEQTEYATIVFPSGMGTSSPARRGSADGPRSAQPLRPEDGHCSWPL

Compound | IC50 [µM]
CCC(C)[C@@H]1NC(=O)[C@H](Cc2ccc(-c3ccccc3)cc2)NC(=O)[C@H](C(C)C)NC(=O)[C@H](Cc2cccc(C)c2)NC(=O)[C@H](CC(=O)O)NC(=O)[C@H](Cc2ccc(C(=O)O)cc2)NC(=O)[C@H](Cc2ccncc2)NC(=O)CSC[C@@H](C(N)=O)NC(=O)[C@H](CCCN)NC(=O)[C@H](C(C)C)NC(=O)[C@H](CC2CCCCC2)NC(=O)[C@H](CCN)NC(=O)[C@@H](CC(C)C)NC(=O)[C@H](CCCN)NC1=O (stereo partly drawn) [Compound 2273] ({CH2CO}-[4Pal][Phe(4-COOH)]D[Phe(3-Me)]V[Bip][Ile(3ξ)][Orn][dL][Dab][Cha]V[Orn]C-NH2; thioether N-14) | 0.0266
Cc1cccc(C[C@@H]2NC(=O)[C@H](CC(=O)O)NC(=O)[C@H](Cc3ccc(OCC(=O)O)cc3)NC(=O)[C@H]([C@@H](C)O)NC(=O)CSC[C@@H](C(N)=O)NC(=O)[C@H](CC(=O)O)NC(=O)[C@H](C(C)C)NC(=O)[C@H](CC3CCCCC3)NC(=O)[C@H](CCN)NC(=O)[C@@H](CC(C)C)NC(=O)[C@H](CCCN)NC(=O)[C@H](Cc3ccc(OCC(=O)O)cc3)NC(=O)[C@H](Cc3ccc(-c4ccccc4)cc3)NC(=O)[C@H](Cc3ccc(OCC(=O)O)cc3)NC2=O)c1 [Compound 1798] ({CH2CO}-TY(Carboxymethyl)D[Phe(3-Me)]Y(Carboxymethyl)[Bip]Y(Carboxymethyl)[Orn][dL][Dab][Cha]VDC-NH2; thioether N-14) | 0.0267
CC(C)C[C@@H]1NC(=O)[C@H](CCN)NC(=O)[C@@H](CC(C)C)NC(=O)[C@H](Cc2ccc(O)cc2)NC(=O)[C@H](C(C)C)NC(=O)[C@H](Cc2ccc(-c3ccccc3)cc2)NC(=O)[C@@H](C(C)C)NC(=O)[C@H](Cc2c[nH]c3ccccc23)NC(=O)[C@H](CC(=O)O)NC(=O)[C@H](Cc2ccc(O)cc2)NC(=O)[C@H](CC(N)=O)NC(=O)CSC[C@@H](C(=O)N[C@@H](C)C(N)=O)NC(=O)[C@@H]([C@@H](C)O)NC(=O)[C@H](C(C)C)NC1=O [Compound 1031] ({CH2CO}-NYDW[dV][Bip]VY[dL][Dab]LV[d(aThr)]CA-NH2; thioether N-14) | 0.0874
C#CC[C@H](NC(=O)C(C)NC(=O)[C@@H]1CSCC(=O)N[C@@H](Cc2ccncc2)C(=O)N[C@@H](Cc2ccc(C(=O)O)cc2)C(=O)N[C@@H](CC(=O)O)C(=O)N[C@@H](Cc2cccc(C)c2)C(=O)N[C@@H](Cc2ccc(OCC(=O)O)cc2)C(=O)N[C@@H](Cc2ccc(-c3ccccc3)cc2)C(=O)N[C@@H](Cc2ccc(OCC(=O)O)cc2)C(=O)N[C@@H](CCCN)C(=O)N[C@H](CC(C)C)C(=O)N[C@@H](CCN)C(=O)N[C@@H](CC2CCCCC2)C(=O)N[C@@H](C(C)(C)O)C(=O)N[C@@H](CO)C(=O)N1)C(N)=O (stereo partly drawn) [Compound 2329] ({CH2CO}-[4Pal][Phe(4-COOH)]D[Phe(3-Me)]Y(Carboxymethyl)[Bip]Y(Carboxymethyl)[Orn][dL][Dab][Cha][Val(3-OH)]SC[ξA][Pra]-NH2; thioether N-14) | 0.973
CC[C@H](NC(=O)[C@@H]1CSCC(=O)N[C@@H](Cc2cnc[nH]2)C(=O)N[C@@H](Cc2ccc(OCC(=O)O)cc2)C(=O)N[C@@H](CC(=O)O)C(=O)N[C@@H](Cc2c[nH]c3ccccc23)C(=O)N[C@@H](C(C)C)C(=O)N[C@@H](Cc2ccc(-c3ccccc3)cc2)C(=O)N[C@@H](C(C)C)C(=O)N[C@@H](CCCN)C(=O)N[C@H](CC(C)C)C(=O)N[C@@H](CCN)C(=O)N[C@@H](CC2CCCCC2)C(=O)N[C@@H](C(C)C)C(=O)N[C@@H](CO)C(=O)N1)C(N)=O [Compound 2564] ({CH2CO}-HY(Carboxymethyl)DWV[Bip]V[Orn][dL][Dab][Cha]VSC[Abu]-NH2; thioether N-14) | 0.0188
Cc1cccc(C[C@@H]2NC(=O)[C@H](CC(=O)O)NC(=O)[C@H](Cc3ccc(OCC(=O)O)cc3)NC(=O)[C@H](CCCNC(=N)N)NC(=O)CSC[C@@H](C(=O)N[C@@H](CO)C(N)=O)NC(=O)[C@H](CO)NC(=O)[C@H](C(C)O)NC(=O)[C@H](CC3CCCCC3)NC(=O)[C@H](CCN)NC(=O)[C@@H](CC(C)C)NC(=O)[C@H](CCCN)NC(=O)[C@H](CCCNC(N)=O)NC(=O)[C@H](Cc3ccc(-c4ccccc4)cc3)NC(=O)[C@H](C(C)C)NC2=O)c1 (stereo partly drawn) [Compound 2598] ({CH2CO}-RY(Carboxymethyl)D[Phe(3-Me)]V[Bip][Cit][Orn][dL][Dab][Cha][Thr(3ξ)]SCS-NH2; thioether N-14) | 0.014
C#CC[C@H](NC(=O)[C@@H]1CSCC(=O)N[C@@H](CCC)C(=O)N[C@@H](Cc2ccc(OCC(=O)O)cc2)C(=O)N[C@@H](CC(=O)O)C(=O)N[C@@H](Cc2cccc(C)c2)C(=O)N[C@@H](Cc2ccc(OCC(=O)O)cc2)C(=O)N[C@@H](Cc2ccc(-c3ccccc3)cc2)C(=O)N[C@@H](Cc2ccc(OCC(=O)O)cc2)C(=O)N[C@@H](CCCN)C(=O)N[C@H](CC(C)C)C(=O)N[C@@H](CCN)C(=O)N[C@@H](CC2CCCCC2)C(=O)N[C@@H](C(C)C)C(=O)N[C@@H](CCC(=O)O)C(=O)N1)C(=O)O [Compound 2702] ({CH2CO}-[Nva]Y(Carboxymethyl)D[Phe(3-Me)]Y(Carboxymethyl)[Bip]Y(Carboxymethyl)[Orn][dL][Dab][Cha]VEC[Pra]-OH; thioether N-14) | 0.0505
CC(C)C[C@@H]1NC(=O)[C@H](Cc2c[nH]c3ccccc23)NC(=O)[C@H](CC(=O)O)NC(=O)[C@H](Cc2ccc(O)cc2)NC(=O)[C@H](Cc2ccccc2)NC(=O)CSC[C@@H](C(=O)NCC(N)=O)NC(=O)[C@H](CO)NC(=O)[C@H](C(C)C)NC(=O)[C@H](CC(C)C)NC(=O)[C@H](CC(N)=O)NC(=O)[C@@H](CC(C)C)NC(=O)[C@H](CCCN)NC(=O)[C@H](C(C)C)NC(=O)[C@H](Cc2ccc(-c3ccccc3)cc2)NC1=O [Compound 1067] ({CH2CO}-FYDWL[Bip]V[Orn][dL]NLVSCG-NH2; thioether N-14) | 0.0222
CCC(C)[C@@H]1NC(=O)[C@H](Cc2ccc(-c3ccccc3)cc2)NC(=O)[C@H](C(C)C)NC(=O)[C@H](Cc2cccc(C)c2)NC(=O)[C@H](CC(=O)O)NC(=O)[C@H](Cc2cccnc2)NC(=O)[C@H](CN)NC(=O)CSC[C@@H](C(=O)N[C@@H](C)C(N)=O)NC(=O)[C@H]([C@@H](C)O)NC(=O)[C@H](C(C)C)NC(=O)[C@H](CC2CCCCC2)NC(=O)[C@H](CCN)NC(=O)[C@@H](CC(C)C)NC(=O)[C@H](CCCN)NC1=O (some centres unmarked) [Compound 2235] | 0.0091

The remaining lines, values ahead:

IC50 [µM] | Compound
0.229 | CC(C)C[C@@H]1NC(=O)[C@H](Cc2c[nH]c3ccccc23)NC(=O)[C@H](CC(=O)O)NC(=O)[C@H](Cc2ccc(O)cc2)NC(=O)[C@H](Cc2ccccc2)NC(=O)CSC[C@@H](C(=O)N[C@@H](C)C(N)=O)NC(=O)[C@H]([C@@H](C)O)NC(=O)[C@H](C(C)C)NC(=O)[C@H](CC(C)C)NC(=O)[C@H](CC(N)=O)NC(=O)[C@@H](C)NC(=O)[C@H](CCCN)NC(=O)[C@H](C(C)C)NC(=O)[C@H](Cc2ccc(-c3ccccc3)cc2)NC1=O [Compound 1092] ({CH2CO}-FYDWL[Bip]V[Orn][dA]NLVTCA-NH2; thioether N-14)
0.268 | CC(C)C[C@H]1NC(=O)[C@H](CCCN)NC(=O)[C@H](CCC(=O)O)NC(=O)[C@H](Cc2ccc(-c3ccccc3)cc2)NC(=O)[C@H](C(C)C)NC(=O)[C@H](Cc2c[nH]c3ccccc23)NC(=O)[C@H](CC(=O)O)NC(=O)[C@H](Cc2ccc(OCC(=O)O)cc2)NC(=O)[C@H](CN)NC(=O)CSC[C@@H](C(=O)N[C@@H](C)C(N)=O)NC(=O)[C@H]([C@@H](C)O)NC(=O)[C@H](C(C)C)NC(=O)[C@H](Cc2ccccc2C#N)NC(=O)[C@H](CCN)NC1=O [Compound 1487] ({CH2CO}-[Dap]Y(Carboxymethyl)DWV[Bip]E[Orn][dL][Dab][Phe(2-CN)]VTCA-NH2; thioether N-14)
0.0447 | CC(C)C[C@H]1NC(=O)[C@H](CCCN)NC(=O)[C@H](CCCNC(N)=O)NC(=O)[C@H](Cc2ccc(-c3ccccc3)cc2)NC(=O)[C@H](C(C)C)NC(=O)[C@H](Cc2c[nH]c3ccccc23)NC(=O)[C@H](CC(=O)O)NC(=O)[C@H](Cc2ccc(C(F)(F)F)cc2)NC(=O)[C@H](CN)NC(=O)CSC[C@@H](C(=O)N[C@@H](C)C(N)=O)NC(=O)[C@H]([C@@H](C)O)NC(=O)[C@H](C(C)C)NC(=O)[C@H](CC2CCCCC2)NC(=O)[C@H](CCN)NC1=O [Compound 2107] ({CH2CO}-[Dap][Phe(4-CF3)]DWV[Bip][Cit][Orn][dL][Dab][Cha]VTCA-NH2; thioether N-14)
0.0058 | COc1cccc(C[C@@H]2NC(=O)[C@H](CC(=O)O)NC(=O)[C@H](Cc3ccc(C(=O)O)cc3)NC(=O)[C@H](Cc3ccncc3)NC(=O)CSC[C@@H](C(=O)N[C@@H](C)C(N)=O)NC(=O)[C@H]([C@@H](C)O)NC(=O)[C@H](C(C)C)NC(=O)[C@H](CC(C)C)NC(=O)[C@H](CCN)NC(=O)[C@@H](CC(C)C)NC(=O)[C@H](CCCN)NC(=O)[C@H](CCCNC(N)=O)NC(=O)[C@H](Cc3ccc(-c4ccccc4)cc3)NC(=O)[C@H](C(C)C)NC2=O)c1 [Compound 1179] ({CH2CO}-[4Pal][Phe(4-COOH)]D[Phe(3-OMe)]V[Bip][Cit][Orn][dL][Dab]LVTCA-NH2; thioether N-14)
0.0209 | CC(C)C[C@H]1NC(=O)[C@H](CCCN)NC(=O)[C@H](CCCNC(N)=O)NC(=O)[C@H](Cc2ccc(-c3ccccc3)cc2)NC(=O)[C@H](C(C)C)NC(=O)[C@H](Cc2c[nH]c3ccccc23)NC(=O)[C@H](CC(=O)O)NC(=O)[C@H](Cc2ccc(C(=O)O)cc2)NC(=O)[C@H](Cc2ccc(OCC(=O)O)cc2)NC(=O)CSC[C@@H](C(=O)N[C@@H](C)C(N)=O)NC(=O)[C@H]([C@@H](C)O)NC(=O)[C@H](C(C)C)NC(=O)[C@H](Cc2cccc(F)c2)NC(=O)[C@H](CCN)NC1=O [Compound 1675] ({CH2CO}-Y(Carboxymethyl)[Phe(4-COOH)]DWV[Bip][Cit][Orn][dL][Dab][Phe(3-F)]VTCA-NH2; thioether N-14)
